# Assay results published in US8936787B2, “Peptides promoting lipid efflux” (The United States of America as represented by the …, priority 2008, dated 2015).
# “Also recorded” adds a separate entry of the source. Square brackets hold non-standard residues; d marks the D form. Ends that are not written are not given here. Peptide text beside a SMILES is read from it.
# Columns and labels:
# [1] = system: HeLa cells stably transfected with human ABCA1 cDNA (ABCA1 cells); assay: Cholesterol and phospholipid efflux from ABCA1 cells; assay type: cell-based; conditions: for cholesterol efflux from ABCA1 cells to detergent: sublytic concentration (taurodeoxycholate 0.02%, 1 hour)
# Experimental: (§1) Percentage efflux was calculated after subtracting the radioactive counts in the blank media (αMEM plus 1 mg/ml of BSA), and expressed as the percent of total radioactive counts removed from the cells during the efflux period.
# (§2) Cell fixation was performed by a 10 minute treatment with 3% paraformaldehyde in phosphate buffered saline (PBS), followed by three washes with blank media. Lactate dehydrogenase (LDH) release from cells into the media was measured enzymatically (Roche Diagnostics, Indianapolis, Ind.) and expressed, after subtraction of LDH released into blank media, as the percentage of total cell LDH. Total cell LDH was determined after cell solubilization with 1% Triton X-100.
# [2] = system: ABCA1 cells; assay: LDH release from ABCA1 cells; assay type: cell-based, human; conditions: 40 μg/ml for 18 hours
# Experimental: as §2
# (§3) The microsolubilization of the plasma membrane of cells could, therefore, be potentially cytotoxic, but no morphologic effect was observed on the cells after incubation with the peptides or apoA-I, during the efflux experiments. Incubation of the cells with L-37pA and D-37pA at the maximum concentration and time used for the efflux studies (40 μg/ml for 18 hours) did, however, consistently result in the release of a small amount of LDH from both cell lines (control cells: L-37pA (6.1%±0.2), D-37pA (6.6%±0.1); ABCA1 cells: L-37pA (4.3%±0.04), D-37pA (5.7%±0.1)).
# [3] = system: control cells; assay: LDH release from control cells; assay type: cell-based; conditions: 40 μg/ml for 18 hours
# Experimental: as §2, §3
# [4] = system: HeLa cells transfected with only a hygromycin-resistant control plasmid (control cells); assay: Cholesterol and phospholipid efflux from control cells; assay type: cell-based; conditions: for lipid (cholesterol and phospholipid) efflux from control cells: 18 hours
# Experimental: as §1, §2
# [5] = system: C57B1/6 mice; assay: Plasma triglycerides in C57B1/6 mice, 18A-C-II; assay type: in vivo; conditions: 1 mg (30 mg/kg) co-injected
# Experimental: FIG. 18 is a graph illustrating the ability of 18A-C-II:POPC peptide (peptide with SEQ ID NO: 70) to prevent hypertriglyceridemia. The 18A-C-II:POPC peptide was lipidated with POPC at the ratio of 1:7. Hypertriglyceridemia was induced in C57B1/6 mice by a 2 mg (60 mg/kg) bolus intravenous (IV) injection of free 5A peptide (Δ). […] In addition, a single IV dose of 1 mg of the 18A-C-II:POPC peptide lowered the plasma triglyceride levels in normal C57B1 mice (□) compared to saline (⋄).
# 18A-C-II peptide (SEQ ID NO: 70) was complexed with POPC at a 1:7 molar ratio using a co-lyophilization procedure by which the free peptide and POPC were co-dissolved in glacial acetic acid and lypophilized. The dry powder was reconstituted with saline and heated between 37° C. to 50° C. to reconstitution, which results in a clear solution of particles containing both the 18A-C-II peptide and POPC.
# Hypertriglyceridemia was induced in C57B1/6 mice by a 2 mg (60 mg/kg) bolus IV injection of free 5A peptide (A). […] In addition, a single IV dose of 1 mg of the 18A-C-II:POPC peptide lowered the plasma triglyceride levels in normal C57B1 mice (□) compared to saline (⋄).
# [6] = system: BHK and BHK-ABCA1 cells; assay: Cholesterol efflux from BHK and BHK-ABCA1 cells; assay type: cell-based; conditions: 20 ug/ml free peptide, 18 hours
# Experimental: FIG. 23 is a graph illustrating the effect of 18A-C-II peptide on cholesterol efflux. BHK and BHK-ABCA1 cells were loaded with ^3H-cholesterol for 24 hours at 37° C. and then 20 ug/ml of the free 18A-C-II peptide was added as cholesterol acceptor to efflux for 18 hours. Percentage efflux was calculated by subtracting the radioactive counts in the blank from the radioactive counts in the presence of an acceptor and then dividing the result by the sum of the radioactive counts in the medium plus the cell fraction.
# The effect of 18A-C-II peptide on cholesterol efflux was investigated by loading BHK and BHK-ABCA1 cells with ^3H-cholesterol for 24 hours at 37° C. and then adding 20 ug/ml of the free 18A-C-II peptide as cholesterol acceptor to efflux for 18 hours. Percentage efflux was calculated by subtracting the radioactive counts in the blank from the radioactive counts in the presence of an acceptor and then dividing the result by the sum of the radioactive counts in the medium plus the cell fraction.
# [7] = system: red blood cells; assay: Red blood cell hemolysis assay; assay type: cell-based; conditions: 1 hour at 37° C., maximum dose tested
# Experimental: Red blood cells were incubated with the indicated concentration of the peptides for 1 hour at 37° C. Results are expressed as the mean of triplicates ±1 SD.
# Approximately 25% of the red blood cells were lysed after 1 hour at the maximum dose tested (FIG. 9). Overall, the modified peptides containing the Ala substitutions were less cytotoxic, and the degree of cytotoxicity closely correlated with the number of Ala substitutions.
# [8] = system: ABCA1 cells; assay: Competitive binding of radiolabeled L-37pA to ABCA1 cells; parameters: species or system human; conditions: 8 μM, the maximum concentration tested; 4° C.
# Experimental: FIGS. 7A-7B are a pair of graphs illustrating the competitive binding of L-37pA peptide to ABCA1 transfected cells and control cells. ABCA1 cells (FIG. 7A) and control cells (FIG. 7B) were incubated for 3 hours at 4° C. with the indicated concentration of the competitor proteins [L-37pA (triangle), D-37pA (open square), apoA-I (closed circle), L2D-37pA (star), and L3D-37pA (open circle)] and were then washed and incubated for 1 hour at 4° C. with 1 μg/ml of radiolabeled L-37pA peptide. Results are expressed as the mean of triplicates ±1 SD.
# The L-37pA peptide was labeled with ^125I using iodine monochloride. Confluent cells grown on 12-well plates were incubated for 3 hours at 4° C. with the indicated concentration of the unlabeled competitor peptide in αMEM media plus 10 mg/ml of BSA (FIG. 7). […] Cells were washed three times, and cell bound counts were determined after solubilization with 0.1 N NaOH.
# A two-step sequential competitive binding assay was performed in order to prevent any potentially interfering interaction of the radiolabeled peptide with the competitor proteins (Mendez et al., J. Clin. Invest. 94:1698-1705, 1994). The cells were first incubated with the competitor proteins for 3 hours, washed, and then the cell binding of the radiolabeled L-37 peptide was measured. […]
# [9] = system: Normal skin fibroblasts; assay: Cholesterol efflux from normal skin fibroblasts; assay type: cell-based; conditions: 10 μg/ml, 18 hour
# Experimental: (§4) FIG. 5 is a graph illustrating ABCA1-independent efflux of cholesterol from Tangier disease fibroblasts. Normal skin fibroblasts (open bars) and Tangier disease skin fibroblasts (solid bars) were examined for their ability to efflux cholesterol over an 18 hour period when treated with 10 μg/ml apoA-I (A), 10 μg/ml L-37pA (L), and 10 μg/ml D-37pA (D). Results are expressed as the mean of triplicates ±1 SD.
# (§5) In order to confirm that the residual lipid efflux from the control cells to L-37pA and D-37pA (see FIG. 1) was not due to a low level of endogenous ABCA1, a Tangier disease fibroblast cell line with a truncated non-functional ABCA1 transporter (Remaley et al., Proc. Natl. Acad. Sci. USA 96:12685-12690, 1999) was evaluated for lipid efflux (FIG. 5).
# [10] = system: Tangier disease fibroblast cell line with a truncated non-functional ABCA1 transporter; assay: Cholesterol efflux from Tangier disease fibroblasts; assay type: cell-based; conditions: 10 μg/ml, 18 hour
# Experimental: as §4, §5
# [11] = 10 μg/ml, 30 hour efflux period
compound,measurement,setting,value
"C[C@H](CCC(=O)NCCC[N+](C)(C)CCCS(=O)(=O)[O-])[C@H]1CC[C@H]2[C@@H]3[C@H](O)C[C@@H]4C[C@H](O)CC[C@]4(C)[C@H]3C[C@H](O)[C@]12C [CHAPS, reference compound]",cholesterol efflux from ABCA1 cells to detergent,[1],Nearly identical results
CC(C)C[C@@H](NC(=O)[C@@H](Cc1c[nH]c2ccccc12)NC(=O)[C@H](N)CC(=O)O)C(=O)N[C@H](CCCCN)C(=O)N[C@H](C)C(=O)N[C@H](Cc1ccccc1)C(=O)N[C@H](Cc1ccc(O)cc1)C(=O)N[C@H](CC(=O)O)C(=O)N[C@H](CCCCN)C(=O)N[C@@H](C(=O)N[C@H](C)C(=O)N[C@H](CCC(=O)O)C(=O)N[C@H](CCCCN)C(=O)N[C@H](CC(C)C)C(=O)N[C@H](CCCCN)C(=O)N[C@H](CCC(=O)O)C(=O)N[C@H](C)C(=O)N[C@H](Cc1ccccc1)C(=O)N1CCC[C@@H]1C(=O)N[C@H](CC(=O)O)C(=O)N[C@H](Cc1c[nH]c2ccccc12)C(=O)N[C@H](CC(C)C)C(=O)N[C@H](CCCCN)C(=O)N[C@H](C)C(=O)N[C@H](Cc1ccccc1)C(=O)N[C@H](Cc1ccc(O)cc1)C(=O)N[C@H](CC(=O)O)C(=O)N[C@H](CCCCN)C(=O)N[C@@H](C(=O)N[C@H](C)C(=O)N[C@H](CCC(=O)O)C(=O)N[C@H](CCCCN)C(=O)N[C@H](CC(C)C)C(=O)N[C@H](CCCCN)C(=O)N[C@H](CCC(=O)O)C(=O)N[C@H](C)C(=O)N[C@H](Cc1ccccc1)C(=O)O)C(C)C)C(C)C [D-37pA] (H-[dD][dW][dL][dK][dA][dF][dY][dD][dK][dV][dA][dE][dK][dL][dK][dE][dA][dF][dP][dD][dW][dL][dK][dA][dF][dY][dD][dK][dV][dA][dE][dK][dL][dK][dE][dA][dF]-OH; N-terminus and C-terminus assumed),"release of LDH from ABCA1 cells, percentage of total cell LDH",[2],5.7%±0.1
same,"release of LDH from control cells, percentage of total cell LDH",[3],6.6%±0.1
"C[C@H](CCC(=O)NCCS(=O)(=O)O)[C@H]1CC[C@H]2[C@@H]3CC[C@@H]4C[C@H](O)CC[C@]4(C)[C@H]3C[C@H](O)[C@]12C [taurodeoxycholate, reference compound]",cholesterol efflux from control cells to detergent,"[4]; taurodeoxycholate 0.02%, 1 hour",Approximately the same amount
same,cholesterol efflux from ABCA1 cells to detergent,[1],small amount of cholesterol efflux
DWLKAFYDKVAEKLKEAFPDLYSKSTAAMSTYTGIFTDQVLSVLKGEE [18A-C-II],increase in plasma triglycerides induced by free 5A peptide (60 mg/kg IV),[5],significantly reduced; also recorded: significantly halted
same,"cholesterol efflux, BHK-ABCA1 versus BHK cells",[6],significant difference
DWLKAFYDKVAEKLKEAFPDWAKAAYDKAAEKAKEAA [5A],red blood cells lysed (hemolysis),[7],no appreciable hemolysis
DWLKAFYDKVAEKLKEAFPDWLKAAYDKAAEKAKEAA [4A],red blood cells lysed (hemolysis),[7],no appreciable hemolysis
DWLKAFYDKVAEKLKEAFPDWLKAAYDKVAEKAKEAA [3A],red blood cells lysed (hemolysis),[7],moderate degree of hemolysis
"DWLKAFYDKVAEKLKEAFPDWLKAFYDKVA EKLKEAF [37pA, reference compound]",lipid (cholesterol and phospholipid) efflux from control cells,[4],also able to mediate cholesterol efflux
same,lipid (cholesterol and phospholipid) efflux from ABCA1 cells,[1]; 18 hours,promoted ABCA1-mediated cholesterol efflux
DWLKAFYDKVAEKLKEAFPDWLKAFYDKVAEKAKEAA [2A],red blood cells lysed (hemolysis),[7],moderate degree of hemolysis
DWLKAFYDKVAEKLKEAFPDWLKAFYDKVAEKAKEAF [1A],red blood cells lysed (hemolysis),[7],moderate degree of hemolysis
DWLKAFYDKVAEKLKEAFPDWLKAFYDKVAEKLKEAF [L-37pA],"release of LDH from ABCA1 cells, percentage of total cell LDH",[2],4.3%±0.04
same,"release of LDH from control cells, percentage of total cell LDH",[3],6.1%±0.2
NP-40 [reference compound],cholesterol efflux from ABCA1 cells to detergent,[1],Nearly identical results
"RMRITERDDFRGQMSEITDDCPSLQDRFHLTEVHSLRVLEGS (Gamma crystalline peptide.) [contains two non-amphipathic alpha helices, reference compound]",lipid (cholesterol and phospholipid) efflux from control cells,[4],completely ineffective
same,lipid (cholesterol and phospholipid) efflux from ABCA1 cells,[1]; 18 hours,completely ineffective
"apoA-I: apolipoprotein A-I, the predominant protein constituent of HDL",binding of labeled L-37pA to ABCA1 cells blocked by competitor,[8],approximately 30%
same,cholesterol efflux from normal fibroblasts,[9],effluxed cholesterol
same,cholesterol efflux from control cells over the time course,[4]; [11],no significant increase above background
same,lipid (cholesterol and phospholipid) efflux from control cells,[4],do not efflux significant amounts; also recorded: unable
same,cholesterol efflux from ABCA1 cells after fixation with paraformaldehyde,"[1]; 10 μg/ml, 18 hours, 3% paraformaldehyde",completely blocked
same,time at which cholesterol efflux from ABCA1 cells was first detectable,[1]; [11],2 h
same,lipid (cholesterol and phospholipid) efflux from ABCA1 cells,[1]; 18 hours,do so after transfection with ABCA1
same,protein concentration at which lipid efflux began to show saturation,[1]; 18 hours,~10 µg/mL
same,molar concentration at which lipid efflux began to show saturation,[1]; corresponds to 10 μg/ml,0.36 µM
same,cholesterol efflux from Tangier disease fibroblasts,[10],did not efflux significant amounts
